“And” between values parts separate entries of the source, which are not always exact repeats. Equal values may be shown once. Inconclusive results and toxic doses are left out.
Test system: L1210 leukemia ip in BDF1 mice, survival T/C
Assay: NCI In Vivo Anticancer Drug Screen. Data for tumor model L1210 Leukemia (intraperitoneal) in B6D2F1 (BDF1) mice
Conditions: endpoint: mean survival time, higher = longer survival
How it was run: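 Transplantable tumor model; survival measured in treated vs vehicle control mice. Value = treated/control.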

[1] = dose: 100.0 mg/kg/injection, schedule: Q01DX001 (ip), vehicle: saline
[2] = dose: 100.0 mg/kg/injection, schedule: Q01DX009 (ip), vehicle: saline
[3] = dose: 200.0 mg/kg/injection, schedule: Q01DX001 (ip), vehicle: saline
[4] = dose: 400.0 mg/kg/injection, schedule: Q01DX001 (ip), vehicle: saline
[5] = dose: 100.0 mg/kg/injection, schedule: Q01DX009 (ip), vehicle: saline with Tween-80
[6] = dose: 100.0 mg/kg/injection, schedule: Q04DX003 (ip), vehicle: saline with Tween-80
[7] = dose: 200.0 mg/kg/injection, schedule: Q01DX009 (ip), vehicle: saline with Tween-80
[8] = dose: 200.0 mg/kg/injection, schedule: Q04DX003 (ip), vehicle: saline with Tween-80
[9] = dose: 400.0 mg/kg/injection, schedule: Q01DX009 (ip), vehicle: saline with Tween-80
[10] = dose: 400.0 mg/kg/injection, schedule: Q04DX003 (ip), vehicle: saline with Tween-80
[11] = dose: 100.0 mg/kg/injection, schedule: Q04DX002 (ip), vehicle: Klucel (hydroxypropylcellulose) (HPC)
[12] = dose: 200.0 mg/kg/injection, schedule: Q04DX002 (ip), vehicle: Klucel (hydroxypropylcellulose) (HPC)
[13] = dose: 400.0 mg/kg/injection, schedule: Q04DX002 (ip), vehicle: Klucel (hydroxypropylcellulose) (HPC)
[14] = dose: 12.5 mg/kg/injection, schedule: Q04DX003 (ip), vehicle: saline
[15] = dose: 25.0 mg/kg/injection, schedule: Q04DX003 (ip), vehicle: saline
[16] = dose: 50.0 mg/kg/injection, schedule: Q04DX003 (ip), vehicle: saline

## Cc1ccc(S(=O)(=O)C2=C(c3ccccc3)c3ccccc3CC2)cc1
[1]
  T/C: 101 % of control
[2]
  T/C: 93 % of control
dose: 100.0 mg/kg/injection, schedule: Q04DX003 (ip), vehicle: acetone
  T/C: 100 % of control
[3]
  T/C: 93 % of control
dose: 200.0 mg/kg/injection, schedule: Q01DX009 (ip), vehicle: saline
  T/C: 91 % of control
dose: 200.0 mg/kg/injection, schedule: Q04DX003 (ip), vehicle: acetone
  T/C: 102 % of control
[4]
  T/C: 95 % of control
dose: 400.0 mg/kg/injection, schedule: Q01DX009 (ip), vehicle: saline
  T/C: 93 % of control
dose: 400.0 mg/kg/injection, schedule: Q04DX003 (ip), vehicle: acetone
  T/C: 105 % of control

## O=C(Nc1cccc(F)c1)Nc1ccc(Cl)cc1Cl
dose: 100.0 mg/kg/injection, schedule: Q01DX009 (ip), vehicle: Klucel (hydroxypropylcellulose) (HPC)
  T/C: 96 % of control
dose: 200.0 mg/kg/injection, schedule: Q01DX009 (ip), vehicle: Klucel (hydroxypropylcellulose) (HPC)
  T/C: 91 % of control

## CCCCCSC(=O)C(N)=O
[5]
  T/C: 102 % of control
[6]
  T/C: 100 % of control
[7]
  T/C: 100 % of control
[8]
  T/C: 109 % of control
[9]
  T/C: 96 % of control
[10]
  T/C: 92 % of control

## N#CCN(CC#N)CCCN(CC#N)CCCN(CC#N)CC#N
dose: 12.5 mg/kg/injection, schedule: Q01DX001 (ip), vehicle: saline with Tween-80
  T/C: 97 % of control
dose: 25.0 mg/kg/injection, schedule: Q01DX001 (ip), vehicle: saline with Tween-80
  T/C: 108 % of control
dose: 50.0 mg/kg/injection, schedule: Q01DX001 (ip), vehicle: saline with Tween-80
  T/C: 102 % of control

## CC1=CC(=O)C(Sc2ccc(C)cc2)=CC1=O
dose: 75.0 mg/kg/injection, schedule: Q01DX001 (ip), vehicle: other
  T/C: 98 % of control
dose: 150.0 mg/kg/injection, schedule: Q01DX001 (ip), vehicle: other
  T/C: 93 % of control

## CCCCCCCCCC(CCCCCCCC)SC(C)=O (centres undefined)
[11]
  T/C: 108 % of control
[12]
  T/C: 103 % of control
[13]
  T/C: 103 % of control

## CC(=O)COc1ccc(Cl)cc1Cl
[5]
  T/C: 98 % of control
[7]
  T/C: 97 % of control
[9]
  T/C: 92 % of control

## CC1(C)OC2COC(c3[nH]nc(C(N)=O)c3C(=O)N=[N+]=[N-])C2O1 (centres undefined)
dose: 100.0 mg/kg/injection, schedule: Q01DX005 (ip), vehicle: saline
  T/C: 101 % of control
dose: 200.0 mg/kg/injection, schedule: Q01DX005 (ip), vehicle: saline
  T/C: 101 % of control

## NC1CC1c1ccccc1 (centres undefined)
[14]
  T/C: 98 % of control and 93 % of control
dose: 25.0 mg/kg/injection, schedule: Q01DX009 (ip), vehicle: saline
  T/C: 97 % of control
[15]
  T/C: 96 % of control and 100 % of control and 92 % of control
dose: 50.0 mg/kg/injection, schedule: Q01DX009 (ip), vehicle: saline
  T/C: 105 % of control
[16]
  T/C: 96 % of control and 95 % of control and 100 % of control
[2]
  T/C: 105 % of control
dose: 100.0 mg/kg/injection, schedule: Q04DX003 (ip), vehicle: saline
  T/C: 86 % of control and 103 % of control

## OCCCNc1nc2ccc(Cl)cc2c2ccccc12
dose: 100.0 mg/kg/injection, schedule: Q04DX003 (ip), vehicle: Klucel (hydroxypropylcellulose) (HPC)
  T/C: 116 % of control
dose: 200.0 mg/kg/injection, schedule: Q04DX003 (ip), vehicle: Klucel (hydroxypropylcellulose) (HPC)
  T/C: 107 % of control
dose: 400.0 mg/kg/injection, schedule: Q04DX003 (ip), vehicle: Klucel (hydroxypropylcellulose) (HPC)
  T/C: 108 % of control

## CCOC(=O)Cc1c[nH]c2ccc(N(CCCl)CCCl)cc12
dose: 0.55 mg/kg/injection, schedule: Q01DX009 (ip), vehicle: carboxymethylcellulose (CMC)
  T/C: 121 % of control
dose: 1.5 mg/kg/injection, schedule: Q01DX009 (ip), vehicle: carboxymethylcellulose (CMC)
  T/C: 151 % of control
dose: 2.2 mg/kg/injection, schedule: Q01DX009 (ip), vehicle: other
  T/C: 152 % of control
dose: 3.1 mg/kg/injection, schedule: Q01DX009 (ip), vehicle: carboxymethylcellulose (CMC)
  T/C: 160 % of control and 177 % of control
dose: 3.4 mg/kg/injection, schedule: Q01DX009 (ip), vehicle: other
  T/C: 152 % of control
dose: 4.8 mg/kg/injection, schedule: Q01DX009 (ip), vehicle: carboxymethylcellulose (CMC)
  T/C: 168 % of control
dose: 5.0 mg/kg/injection, schedule: Q01DX009 (ip), vehicle: other
  T/C: 169 % of control
dose: 7.0 mg/kg/injection, schedule: Q01DX009 (ip), vehicle: carboxymethylcellulose (CMC)
  T/C: 157 % of control
dose: 7.0 mg/kg/injection, schedule: Q01DX009 (ip), vehicle: other
  T/C: 176 % of control
dose: 7.3 mg/kg/injection, schedule: Q01DX001 (ip), vehicle: carboxymethylcellulose (CMC)
  T/C: 120 % of control
dose: 7.3 mg/kg/injection, schedule: Q01DX009 (ip), vehicle: carboxymethylcellulose (CMC)
  T/C: 176 % of control
dose: 11.0 mg/kg/injection, schedule: Q01DX001 (ip), vehicle: carboxymethylcellulose (CMC)
  T/C: 124 % of control
dose: 11.0 mg/kg/injection, schedule: Q01DX009 (ip), vehicle: carboxymethylcellulose (CMC)
  T/C: 168 % of control
dose: 11.1 mg/kg/injection, schedule: Q01DX009 (ip), vehicle: carboxymethylcellulose (CMC)
  T/C: 97 % of control
dose: 16.6 mg/kg/injection, schedule: Q01DX001 (ip), vehicle: carboxymethylcellulose (CMC)
  T/C: 121 % of control
dose: 25.0 mg/kg/injection, schedule: Q01DX001 (ip), vehicle: carboxymethylcellulose (CMC)
  T/C: 166 % of control and 225 % of control
dose: 37.5 mg/kg/injection, schedule: Q01DX001 (ip), vehicle: carboxymethylcellulose (CMC)
  T/C: 94 % of control

## CN(C)c1ccc(/C=N\NC(=S)Nc2ccccc2)c(Cl)c1
dose: 12.5 mg/kg/injection, schedule: Q01DX009 (ip), vehicle: saline with Tween-80
  T/C: 89 % of control
[14]
  T/C: 98 % of control
dose: 25.0 mg/kg/injection, schedule: Q01DX009 (ip), vehicle: saline with Tween-80
  T/C: 91 % of control
[15]
  T/C: 102 % of control
dose: 50.0 mg/kg/injection, schedule: Q01DX009 (ip), vehicle: saline with Tween-80
  T/C: 97 % of control
[16]
  T/C: 95 % of control
dose: 75.0 mg/kg/injection, schedule: Q01DX009 (ip), vehicle: saline with Tween-80
  T/C: 101 % of control
[1]
  T/C: 87 % of control
dose: 115.0 mg/kg/injection, schedule: Q01DX009 (ip), vehicle: saline with Tween-80
  T/C: 98 % of control
dose: 170.0 mg/kg/injection, schedule: Q01DX009 (ip), vehicle: saline with Tween-80
  T/C: 92 % of control
[3]
  T/C: 95 % of control
[4]
  T/C: 92 % of control

## CCCSCCCCSCCC
dose: 25.0 mg/kg/injection, schedule: Q04DX003 (ip), vehicle: saline with Tween-80
  T/C: 115 % of control
dose: 50.0 mg/kg/injection, schedule: Q04DX003 (ip), vehicle: saline with Tween-80
  T/C: 104 % of control
[5]
  T/C: 100 % of control
[6]
  T/C: 102 % of control
[7]
  T/C: 109 % of control
[8]
  T/C: 92 % of control
[9]
  T/C: 91 % of control
[10]
  T/C: 95 % of control

## O=C(CCN1CC=C(c2ccccc2)CC1)c1ccc(F)cc1
dose: 50.0 mg/kg/injection, schedule: Q01DX001 (ip), vehicle: Klucel (hydroxypropylcellulose) (HPC)
  T/C: 93 % of control
dose: 100.0 mg/kg/injection, schedule: Q01DX001 (ip), vehicle: Klucel (hydroxypropylcellulose) (HPC)
  T/C: 97 % of control

## Nc1nc(SN=Nc2ccc(S(=O)(=O)O)cc2)c2[nH]cnc2n1
dose: 11.0 mg/kg/injection, schedule: Q01DX Z (ip), vehicle: alkali diluted with saline
  T/C: 110 % of control
dose: 17.0 mg/kg/injection, schedule: Q01DX Z (ip), vehicle: alkali diluted with saline
  T/C: 120 % of control
dose: 25.0 mg/kg/injection, schedule: Q01DX Z (ip), vehicle: alkali diluted with saline
  T/C: 112 % of control
dose: 38.0 mg/kg/injection, schedule: Q01DX Z (ip), vehicle: alkali diluted with saline
  T/C: 104 % of control

## C=C(Cl)CSCCO
[6]
  T/C: 92 % of control
[8]
  T/C: 97 % of control
[10]
  T/C: 97 % of control

## CC(C)(Cl)Cc1ccccc1
[5]
  T/C: 88 % of control
[6]
  T/C: 103 % of control
[7]
  T/C: 91 % of control
[8]
  T/C: 105 % of control
[10]
  T/C: 94 % of control

## Cc1ccc(S(=O)(=O)OC(CO)C(O)C(O)C(CO)OS(=O)(=O)c2ccc(C)cc2)cc1 (centres undefined) (tested in a mixture with another compound)
[11]
  T/C: 86 % of control
[12]
  T/C: 101 % of control
[13]
  T/C: 93 % of control
